# Test system: C-reactive protein (CRP)
# Assay: CRP (hs-CRP) in blood, CHASE clinical study
# Type: in vivo, human
# Settings: Group Z 48 mg BID; for CRP Max / CRP Mean (SD) / CRP Median / CRP Min: V6 Week 12
# Excerpt: This is a two-part study comprising Part I and Part II. Following screening, Part I consists of a randomized, double-blind, placebo controlled dosing period of up to 12 weeks. The study shall be conducted at one or more study sites in Hawaii. Approximately 360 subjects qualified after completion of screening procedures shall be randomized in a 1:1:1 ratio to one of three treatment groups, per Table 1.
# The Part I 12-week double-blind dosing period commences with V2, including randomization and first dose of study product, and continues with study visits at Week 1-2 (V3), Week 4 (V4), Week 8 (V5), and Week 12 (V6). V6 procedures will conclude Part I.
# Blood shall be obtained at each visit for CRP. The screening specimen shall be processed at the local lab and reported to the study staff for eligibility determination; CRP samples at V7 and V8 may also be processed locally and reported directly to study staff. Samples for CRP from V2 through V6 may be batched, processed, and reported as specified in the Laboratory Manual.
# At each these visits, blood was obtained for measurement of CRP, among other parameters. Table 7A provides a summary of the CRP measurements (mg/L) at each visit and Table 7B provides a summary of the differences of CRP levels between V2 and V6.
# [1] = subjects with DM2, hypertension and hyperlipidemia but not CAD
# [2] = subjects with Diabetes Mellitus Type II
# [3] = subjects with baseline level greater than 2.0
# [4] = baseline to Week 12, all subjects
# [5] = baseline to Week 12, subjects not taking a hypertension agent
# [6] = baseline to Week 12, subjects not taking any cardiac therapeutic agent
# [7] = baseline to Week 12, subjects not taking statins
# [8] = baseline to Week 12, subjects taking an anti-diabetic agent
# [9] = baseline to Week 12, subjects with CAD
# [10] = baseline to Week 12, subjects with DM2, hypertension and hyperlipidemia but not CAD
# [11] = baseline to Week 12, subjects with Diabetes Mellitus Type II
# [12] = baseline to Week 12, subjects with baseline level greater than 2.0
# [13] = baseline to Week 12, subjects with hyperlipidemia
smiles,measurement,setting,value
"CC1=C(/C=C/C(C)=C/C=C/C(C)=C/C=C/C=C(C)/C=C/C=C(C)/C=C/C2=C(C)C(=O)C(O)CC2(C)C)C(C)(C)CC(O)C1=O (stereo not drawn) [Astaxanthin, astaxanthin]",CRP Max,[1],6.14 mg/L
same,CRP Mean (SD),[1],3.38 (1.57) mg/L
same,CRP Median,[1],2.58 mg/L
same,CRP Min,[1],2.48 mg/L
same,CRP Max,[2],8.84 mg/L
same,CRP Mean (SD),[2],3.77 (2.70) mg/L
same,CRP Median,[2],2.56 mg/L
same,CRP Min,[2],0.61 mg/L
same,CRP Max,[3],8.84 mg/L
same,CRP Mean (SD),[3],3.88 (2.42) mg/L
same,CRP Median,[3],2.89 mg/L
same,CRP Min,[3],0.61 mg/L
same,CRP Max,subjects with hyperlipidemia,6.14 mg/L
same,CRP Mean (SD),subjects with hyperlipidemia,2.54 (1.29) mg/L
same,CRP Median,subjects with hyperlipidemia,2.31 mg/L
same,CRP Min,subjects with hyperlipidemia,0.61 mg/L
same,CRP V2 to V6 % Change Max,[4],81.89%
same,CRP V2 to V6 % Change Mean,[4],−8.48%
same,CRP V2 to V6 % Change Median,[4],−27.9%
same,CRP V2 to V6 % Change Min,[4],−90.9%
same,CRP V2 to V6 Change Max,[4],2.58 mg/L
same,CRP V2 to V6 Change Mean,[4],-0.87 mg/L
same,CRP V2 to V6 Change Median,[4],-0.65 mg/L
same,CRP V2 to V6 Change Min,[4],-6.07 mg/L
same,CRP V2 to V6 % Change Max,[5],−4.25%
same,CRP V2 to V6 % Change Mean (SD),[5],−30.8 (26.09) %
same,CRP V2 to V6 % Change Median,[5],−31.8%
same,CRP V2 to V6 % Change Min,[5],−56.4%
same,CRP V2 to V6 Change Max,[5],-0.11 mg/L
same,CRP V2 to V6 Change Mean (SD),[5],−1.58 (1.32) mg/L
same,CRP V2 to V6 Change Median,[5],-2.00 mg/L
same,CRP V2 to V6 Change Min,[5],-2.64 mg/L
same,CRP V2 to V6 % Change Max,[6],71.27%
same,CRP V2 to V6 % Change Mean (SD),[6],−23.7 (41.82) %
same,CRP V2 to V6 % Change Median,[6],−31.5%
same,CRP V2 to V6 % Change Min,[6],−90.9%
same,CRP V2 to V6 Change Max,[6],1.29 mg/L
same,CRP V2 to V6 Change Mean (SD),[6],−1.42 (2.01) mg/L
same,CRP V2 to V6 Change Median,[6],-1.24 mg/L
same,CRP V2 to V6 Change Min,[6],-6.07 mg/L
same,CRP V2 to V6 % Change Max,[7],19.13%
same,CRP V2 to V6 % Change Mean (SD),[7],−14.9 (28.11) %
same,CRP V2 to V6 % Change Median,[7],−17.6%
same,CRP V2 to V6 % Change Min,[7],−56.4%
same,CRP V2 to V6 Change Max,[7],0.80 mg/L
same,CRP V2 to V6 Change Mean (SD),[7],−0.81 (1.42) mg/L
same,CRP V2 to V6 Change Median,[7],-0.71 mg/L
same,CRP V2 to V6 Change Min,[7],-2.64 mg/L
same,CRP V2 to V6 % Change** Max,[8],81.89%
same,CRP V2 to V6 % Change** Mean (SD),[8],−16.9 (49.24) %
same,CRP V2 to V6 % Change** Median,[8],−30.7%
same,CRP V2 to V6 % Change** Min,[8],−90.9%
same,CRP V2 to V6 Change Max,[8],2.58 mg/L
same,CRP V2 to V6 Change Mean (SD),[8],−1.18 (2.36) mg/L
same,CRP V2 to V6 Change Median,[8],-1.14 mg/L
same,CRP V2 to V6 Change Min,[8],-6.07 mg/L
same,CRP V2 to V6 % Change Max,[9],81.89%
same,CRP V2 to V6 % Change Mean (SD),[9],−28.8 (65.35) %
same,CRP V2 to V6 % Change Median,[9],−39.7%
same,CRP V2 to V6 % Change Min,[9],−90.9%
same,CRP V2 to V6 Change Max,[9],1.04 mg/L
same,CRP V2 to V6 Change Mean (SD),[9],−1.91 (2.67) mg/L
same,CRP V2 to V6 Change Median,[9],-1.24 mg/L
same,CRP V2 to V6 Change Min,[9],-6.07 mg/L
same,CRP V2 to V6 % Change Max,[10],−4.25%
same,CRP V2 to V6 % Change Mean (SD),[10],−32.6 (18.99) %
same,CRP V2 to V6 % Change Median,[10],−30.7%
same,CRP V2 to V6 % Change Min,[10],−50.4%
same,CRP V2 to V6 Change Max,[10],-0.11 mg/L
same,CRP V2 to V6 Change Mean (SD),[10],−1.87 (1.24) mg/L
same,CRP V2 to V6 Change Median,[10],-2.37 mg/L
same,CRP V2 to V6 Change Min,[10],-3.24 mg/L
same,CRP V2 to V6 % Change Max,[11],81.89%
same,CRP V2 to V6 % Change Mean (SD),[11],−14.7 (47.59) %
same,CRP V2 to V6 % Change Median,[11],−29.3%
same,CRP V2 to V6 % Change Min,[11],−90.9%
same,CRP V2 to V6 Change Max,[11],2.58 mg/L
same,CRP V2 to V6 Change Mean (SD),[11],−1.01 (2.32) mg/L
same,CRP V2 to V6 Change Median,[11],-0.90 mg/L
same,CRP V2 to V6 Change Min,[11],-6.07 mg/L
same,CRP V2 to V6 % Change Max,[12],48.77%
same,CRP V2 to V6 % Change Mean (SD),[12],−24.8 (35.03) %
same,CRP V2 to V6 % Change Median,[12],−31.1%
same,CRP V2 to V6 % Change Min,[12],−90.9%
same,CRP V2 to V6 Change Max,[12],2.58 mg/L
same,CRP V2 to V6 Change Mean (SD),[12],−1.37 (2.11) mg/L
same,CRP V2 to V6 Change Median,[12],-1.54 mg/L
same,CRP V2 to V6 Change Min,[12],-6.07 mg/L
same,CRP V2 to V6 % Change Max,[13],81.89%
same,CRP V2 to V6 % Change Mean (SD),[13],−13.6 (49.58) %
same,CRP V2 to V6 % Change Median,[13],−30.7%
same,CRP V2 to V6 % Change Min,[13],−90.9%
same,CRP V2 to V6 Change Max,[13],1.29 mg/L
same,CRP V2 to V6 Change Mean (SD),[13],−1.24 (1.95) mg/L
same,CRP V2 to V6 Change Median,[13],-1.14 mg/L
same,CRP V2 to V6 Change Min,[13],-6.07 mg/L

# From US20200085776A1, “Methods of Reducing C-Reactive Protein and/or Treating Cardiovascular Disease” (CARDAX, INC., priority 2018, published 2020)
